From PMC5218480 (PLoS ONE, 2017)

System: MV-4-11 cells
Experiment: Gene expression microarray analysis (Affymetrix PrimeView) and GSEA
Type: cell-based, human
Parameters: RFU PODN (11730768_x_at) / Fold change /veh PODN (11730768_x_at) / RFU LINC00158 (11744669_a_at) / Fold change /veh LINC00158 (11744669_a_at) / RFU DUSP10 (11751237_a_at) / Fold change /veh DUSP10 (11751237_a_at) / RFU ID3 (11757404_x_at) / Fold change /veh ID3 (11757404_x_at) / RFU PLEKHG5 (11737974_s_at) / Fold change /veh PLEKHG5 (11737974_s_at) / RFU LRRC4B (11730491_at) / Fold change /veh LRRC4B (11730491_at) / RFU GIMAP4 (11747438_a_at) / Fold change /veh GIMAP4 (11747438_a_at) / RFU KRT8 (11758183_x_at) / Fold change /veh KRT8 (11758183_x_at) / RFU CNN1 (11734310_a_at) / Fold change /veh CNN1 (11734310_a_at) / RFU VPS37D (11726825_at) / Fold change /veh VPS37D (11726825_at) / RFU C10orf10 (11716522_x_at) / Fold change /veh C10orf10 (11716522_x_at) / RFU KIR2DL2 /// KIR2DL4 /// KIR2DL5A /// KIR2DL5B /// KIR2DS1 /// KIR2DS2 /// KIR2DS3 /// KIR2DS4 /// KIR3DL3 /// KIR3DL3 /// KIR3DS1 (11738374_at) / Fold change /veh KIR2DL2 /// KIR2DL4 /// KIR2DL5A /// KIR2DL5B /// KIR2DS1 /// KIR2DS2 /// KIR2DS3 /// KIR2DS4 /// KIR3DL3 /// KIR3DL3 /// KIR3DS1 (11738374_at) / RFU C1QL1 (11718748_at) / Fold change /veh C1QL1 (11718748_at) / RFU TMPRSS4 (11747572_a_at) / Fold change /veh TMPRSS4 (11747572_a_at) / RFU HAMP (11756126_x_at) / Fold change /veh HAMP (11756126_x_at) / RFU RNFT2 (11725882_a_at) / Fold change /veh RNFT2 (11725882_a_at) / RFU NR4A2 (11747474_a_at) / Fold change /veh NR4A2 (11747474_a_at) / RFU ABCC12 (11746883_a_at) / Fold change /veh ABCC12 (11746883_a_at) / RFU TMEM136 (11760407_x_at) / Fold change /veh TMEM136 (11760407_x_at) / RFU CLDN22 /// WWC2 (11732394_at) / Fold change /veh CLDN22 /// WWC2 (11732394_at) / RFU HLA-DPB1 (11760878_x_at) / Fold change /veh HLA-DPB1 (11760878_x_at) / RFU SPINT1 (11716480_a_at) / Fold change /veh SPINT1 (11716480_a_at) / RFU GAP43 (11754022_s_at) / Fold change /veh GAP43 (11754022_s_at) / RFU A4GNT (11735810_at) / Fold change /veh A4GNT (11735810_at) / RFU PRB3 (11715151_x_at) / Fold change /veh PRB3 (11715151_x_at) / RFU TUBB4B (11761932_at) / Fold change /veh TUBB4B (11761932_at) / RFU CAPN14 (11732068_a_at) / Fold change /veh CAPN14 (11732068_a_at) / RFU TMCC2 (11721928_a_at) / Fold change /veh TMCC2 (11721928_a_at) / RFU IRGQ (11745062_a_at) / Fold change /veh IRGQ (11745062_a_at) / RFU FAM174B (11720279_a_at) / Fold change /veh FAM174B (11720279_a_at) / RFU TMPRSS4 (11748680_a_at) / Fold change /veh TMPRSS4 (11748680_a_at) / RFU FAM212B (11763350_a_at) / Fold change /veh FAM212B (11763350_a_at) / RFU PLEKHG5 (11743358_a_at) / Fold change /veh PLEKHG5 (11743358_a_at) / RFU ZSCAN30 (11745921_a_at) / Fold change /veh ZSCAN30 (11745921_a_at) / RFU CMKLR1 (11741424_a_at) / Fold change /veh CMKLR1 (11741424_a_at) / RFU LOC101060620 /// MAPK8IP1 (11723275_at) / Fold change /veh LOC101060620 /// MAPK8IP1 (11723275_at) / RFU SPTSSB (11747773_x_at) / Fold change /veh SPTSSB (11747773_x_at) / RFU PRSS12 (11739890_at) / Fold change /veh PRSS12 (11739890_at) / RFU BIN1 (11741810_x_at) / Fold change /veh BIN1 (11741810_x_at) / RFU WNT11 (11732464_a_at) / Fold change /veh WNT11 (11732464_a_at) / RFU C10orf10 (11716521_a_at) / Fold change /veh C10orf10 (11716521_a_at) / RFU C5orf56 (11738089_at) / Fold change /veh C5orf56 (11738089_at) / RFU CYB561 (11721691_x_at) / Fold change /veh CYB561 (11721691_x_at) / RFU ANKRD19P (11752326_a_at) / Fold change /veh ANKRD19P (11752326_a_at) / RFU OR2T12 /// OR2T33 /// OR2T8 (11738714_s_at) / Fold change /veh OR2T12 /// OR2T33 /// OR2T8 (11738714_s_at) / RFU VCAN (11748164_a_at) / Fold change /veh VCAN (11748164_a_at) / RFU JSRP1 (11732532_at) / Fold change /veh JSRP1 (11732532_at) / RFU KRTAP10-11 (11738290_x_at) / Fold change /veh KRTAP10-11 (11738290_x_at) / RFU MYO3A (11730013_a_at) / Fold change /veh MYO3A (11730013_a_at) / RFU EBF3 (11725865_a_at) / Fold change /veh EBF3 (11725865_a_at) / RFU CAMK2N1 (11719241_x_at) / Fold change /veh CAMK2N1 (11719241_x_at) / RFU C5orf56 (11738088_a_at) / Fold change /veh C5orf56 (11738088_a_at) / RFU OLFML3 (11715873_a_at) / Fold change /veh OLFML3 (11715873_a_at) / RFU LOC100653217 /// NTM (11731650_a_at) / Fold change /veh LOC100653217 /// NTM (11731650_a_at) / RFU MAPK11 (11762145_a_at) / Fold change /veh MAPK11 (11762145_a_at) / RFU FIZ1 (11724087_x_at) / Fold change /veh FIZ1 (11724087_x_at) / RFU OASL (11726364_x_at) / Fold change /veh OASL (11726364_x_at) / RFU SOX15 (11748057_x_at) / Fold change /veh SOX15 (11748057_x_at) / RFU CD79A (11719716_a_at) / Fold change /veh CD79A (11719716_a_at) / RFU HIST1H1D (11736915_at) / Fold change /veh HIST1H1D (11736915_at) / RFU CASKIN2 (11723855_a_at) / Fold change /veh CASKIN2 (11723855_a_at) / RFU LOC730098 (11760151_x_at) / Fold change /veh LOC730098 (11760151_x_at) / RFU OR4N2 (11742367_at) / Fold change /veh OR4N2 (11742367_at) / RFU PRRT2 (11749266_a_at) / Fold change /veh PRRT2 (11749266_a_at) / RFU SNX32 (11753110_a_at) / Fold change /veh SNX32 (11753110_a_at) / RFU CDHR5 (11726645_a_at) / Fold change /veh CDHR5 (11726645_a_at) / RFU RCAN1 (11760418_a_at) / Fold change /veh RCAN1 (11760418_a_at) / RFU FAM167A (11723789_a_at) / Fold change /veh FAM167A (11723789_a_at) / RFU FAM26E (11764081_at) / Fold change /veh FAM26E (11764081_at) / RFU ISYNA1 (11749810_s_at) / Fold change /veh ISYNA1 (11749810_s_at) / RFU ACY1 (11761880_at) / Fold change /veh ACY1 (11761880_at) / RFU 11764098_at / Fold change /veh 11764098_at / RFU SAMD14 (11745864_x_at) / Fold change /veh SAMD14 (11745864_x_at) / RFU NPB (11741838_a_at) / Fold change /veh NPB (11741838_a_at) / RFU TMPRSS6 (11731388_a_at) / Fold change /veh TMPRSS6 (11731388_a_at) / RFU KRTAP10-2 (11738614_at) / Fold change /veh KRTAP10-2 (11738614_at) / RFU ARHGAP8 /// PRR5-ARHGAP8 (11727945_x_at) / Fold change /veh ARHGAP8 /// PRR5-ARHGAP8 (11727945_x_at) / RFU KRTAP5-7 /// NADSYN1 (11734609_at) / Fold change /veh KRTAP5-7 /// NADSYN1 (11734609_at) / RFU RASL12 (11751679_a_at) / Fold change /veh RASL12 (11751679_a_at) / RFU CDKN2B (11736163_a_at) / Fold change /veh CDKN2B (11736163_a_at) / RFU PRF1 (11729649_at) / Fold change /veh PRF1 (11729649_at) / RFU, ZNF638 /// ZNF638-IT1 / Fold change vs veh, ZNF638 /// ZNF638-IT1 / RFU, PANK3 / Fold change vs veh, PANK3 / RFU, SH3YL1 / Fold change vs veh, SH3YL1 / RFU, ZEB2 / Fold change vs veh, ZEB2 / RFU, NRIP1 / Fold change vs veh, NRIP1 / RFU, PTTG1IP / Fold change vs veh, PTTG1IP / RFU, CAPN2 / Fold change vs veh, CAPN2 / RFU, MED14 / Fold change vs veh, MED14 / RFU, SNORA58 / Fold change vs veh, SNORA58 / RFU, C1orf63 / Fold change vs veh, C1orf63 / RFU, LRRFIP1 / Fold change vs veh, LRRFIP1 / RFU, NDUFAF7 / Fold change vs veh, NDUFAF7 / RFU, SLC12A2 / Fold change vs veh, SLC12A2 / RFU, IBTK / Fold change vs veh, IBTK / RFU, ESF1 / Fold change vs veh, ESF1 / Fold change vs veh, TMEM50B / RFU, TAOK1 / Fold change vs veh, TAOK1 / RFU, ACBD3 / Fold change vs veh, ACBD3 / RFU, TMA16 / Fold change vs veh, TMA16 / RFU, RWDD3 / Fold change vs veh, RWDD3 / RFU, BCAT1 / Fold change vs veh, BCAT1 / RFU, EDEM3 / Fold change vs veh, EDEM3 / RFU, TMEM33 / Fold change vs veh, TMEM33 / RFU, WDR75 / Fold change vs veh, WDR75 / RFU, AHCTF1 / Fold change vs veh, AHCTF1 / RFU, TFRC / Fold change vs veh, TFRC / RFU, ZDHHC17 / Fold change vs veh, ZDHHC17 / RFU, NOM1 / Fold change vs veh, NOM1 / RFU, ARL8B / Fold change vs veh, ARL8B / RFU, ZBTB11 / Fold change vs veh, ZBTB11 / RFU, TAMM41 / Fold change vs veh, TAMM41 / RFU, KIAA1704 /// LOC100996395 / Fold change vs veh, KIAA1704 /// LOC100996395 / RFU, ING1 / Fold change vs veh, ING1 / RFU, TRMT61B / Fold change vs veh, TRMT61B / RFU, FUBP3 / Fold change vs veh, FUBP3 / RFU, TP53 / Fold change vs veh, TP53 / RFU, TNKS2 / Fold change vs veh, TNKS2 / RFU, ZFP14 / Fold change vs veh, ZFP14 / RFU, ACTR2 / Fold change vs veh, ACTR2 / RFU, PPP3R1 / Fold change vs veh, PPP3R1 / RFU, PIK3R1 / Fold change vs veh, PIK3R1 / RFU, HNRNPA1 / Fold change vs veh, HNRNPA1 / RFU, RNF170 / Fold change vs veh, RNF170 / RFU, ZNF28 / Fold change vs veh, ZNF28 / RFU, RNGTT / Fold change vs veh, RNGTT / RFU, OGT / Fold change vs veh, OGT / RFU, BRD1 / Fold change vs veh, BRD1 / RFU, MARS / Fold change vs veh, MARS / RFU, ZNF655 / Fold change vs veh, ZNF655 / RFU, FAHD1 / Fold change vs veh, FAHD1 / RFU, BDP1 / Fold change vs veh, BDP1 / RFU, LRRCC1 / Fold change vs veh, LRRCC1 / RFU, ARID1A / Fold change vs veh, ARID1A / RFU, ZNF146 / Fold change vs veh, ZNF146 / RFU, ZNF330 / Fold change vs veh, ZNF330 / RFU, GPN3 / Fold change vs veh, GPN3 / RFU, C9orf123 / Fold change vs veh, C9orf123 / RFU, N4BP2L2 / Fold change vs veh, N4BP2L2 / RFU, ARFIP1 / Fold change vs veh, ARFIP1 / RFU, FAM179B / Fold change vs veh, FAM179B / RFU, BCL10 / Fold change vs veh, BCL10 / RFU, UHRF1BP1L / Fold change vs veh, UHRF1BP1L / RFU, BET1 / Fold change vs veh, BET1 / RFU, CNOT2 / Fold change vs veh, CNOT2 / RFU, ZNF268 / Fold change vs veh, ZNF268 / Fold change vs veh, ZNF507 / RFU, DGCR2 / Fold change vs veh, DGCR2 / RFU, WDSUB1 / Fold change vs veh, WDSUB1 / Fold change vs veh, HSP90B1 /// MIR3652 / RFU, ADSS / Fold change vs veh, ADSS / RFU, GK / Fold change vs veh, GK / RFU, ZNF148 / Fold change vs veh, ZNF148 / RFU, TAF9 / Fold change vs veh, TAF9 / RFU, SLC1A5 / Fold change vs veh, SLC1A5 / RFU, SLMO2 / Fold change vs veh, SLMO2 / RFU, ABCC4 / Fold change vs veh, ABCC4 / RFU, LOC101060439 /// RAP1B / Fold change vs veh, LOC101060439 /// RAP1B / RFU, RFX7 / Fold change vs veh, RFX7 / RFU, GTPBP10 / Fold change vs veh, GTPBP10 / RFU, CNEP1R1 / Fold change vs veh, CNEP1R1 / RFU, BIVM-ERCC5 /// ERCC5 / Fold change vs veh, BIVM-ERCC5 /// ERCC5 / RFU, ILF3 / Fold change vs veh, ILF3 / RFU 11762660_at / Fold change /veh 11762660_at / RFU VCAN (11757783_s_at) / Fold change /veh VCAN (11757783_s_at) / RFU DDX43 (11728927_at) / Fold change /veh DDX43 (11728927_at) / RFU KRT8 (11758188_x_at) / Fold change /veh KRT8 (11758188_x_at) / RFU NKD1 (11759106_at) / Fold change /veh NKD1 (11759106_at) / RFU SRD5A1 (11742802_a_at) / Fold change /veh SRD5A1 (11742802_a_at) / RFU TPSAB1 /// TPSB2 (11721975_s_at) / Fold change /veh TPSAB1 /// TPSB2 (11721975_s_at) / RFU GSTM3 (11746129_a_at) / Fold change /veh GSTM3 (11746129_a_at) / RFU IL23R (11737362_x_at) / Fold change /veh IL23R (11737362_x_at) / RFU TMEM51 (11727254_a_at) / Fold change /veh TMEM51 (11727254_a_at) / RFU PIWIL2 (11732686_x_at) / Fold change /veh PIWIL2 (11732686_x_at) / RFU ORM1 (11744905_x_at) / Fold change /veh ORM1 (11744905_x_at) / RFU CCDC152 (11743942_at) / Fold change /veh CCDC152 (11743942_at) / RFU ECM1 (11717891_a_at) / Fold change /veh ECM1 (11717891_a_at) / RFU IL23R (11748794_a_at) / Fold change /veh IL23R (11748794_a_at) / RFU TNFAIP8L3 (11732012_x_at) / Fold change /veh TNFAIP8L3 (11732012_x_at) / RFU MBOAT4 (11741988_at) / Fold change /veh MBOAT4 (11741988_at) / RFU 11764193_at / Fold change /veh 11764193_at / RFU TMEM53 (11763286_at) / Fold change /veh TMEM53 (11763286_at) / RFU MAGEB2 (11727129_at) / Fold change /veh MAGEB2 (11727129_at) / RFU TMEM200A (11744735_a_at) / Fold change /veh TMEM200A (11744735_a_at) / RFU CCDC152 (11751479_a_at) / Fold change /veh CCDC152 (11751479_a_at) / RFU FAM211A (11726209_a_at) / Fold change /veh FAM211A (11726209_a_at) / RFU RGS16 (11746705_a_at) / Fold change /veh RGS16 (11746705_a_at) / RFU VCAN (11755009_s_at) / Fold change /veh VCAN (11755009_s_at) / RFU RHOB (11743442_s_at) / Fold change /veh RHOB (11743442_s_at) / RFU RGS16 (11720943_a_at) / Fold change /veh RGS16 (11720943_a_at) / RFU RGS16 (11720944_at) / Fold change /veh RGS16 (11720944_at) / RFU, VPS4B / Fold change vs veh, VPS4B / RFU, CREB1 / Fold change vs veh, CREB1 / RFU, DNAJC13 / Fold change vs veh, DNAJC13 / RFU, GNAQ / Fold change vs veh, GNAQ / RFU, CDK5R1 / Fold change vs veh, CDK5R1 / RFU, ZRANB3 / Fold change vs veh, ZRANB3 / RFU, CUL4A / Fold change vs veh, CUL4A / RFU, CCNY / Fold change vs veh, CCNY / RFU, UFL1 / Fold change vs veh, UFL1 / RFU, COG3 / Fold change vs veh, COG3 / RFU, DIAPH2 / Fold change vs veh, DIAPH2 / RFU, SKA2 / Fold change vs veh, SKA2 / RFU, AFF3 / Fold change vs veh, AFF3 / RFU, LMF1 / Fold change vs veh, LMF1 / RFU, IPO11 / Fold change vs veh, IPO11 / RFU, DFFB / Fold change vs veh, DFFB / RFU, FOXP1 / Fold change vs veh, FOXP1 / RFU, CARD8 / Fold change vs veh, CARD8 / RFU, STRN3 / Fold change vs veh, STRN3 / RFU, ADK / Fold change vs veh, ADK / RFU, RASSF2 / Fold change vs veh, RASSF2 / RFU, WIPF1 / Fold change vs veh, WIPF1 / RFU, LARP1B / Fold change vs veh, LARP1B / RFU, RASA1 / Fold change vs veh, RASA1 / RFU, RB1 / Fold change vs veh, RB1 / RFU, PPFIA1 / Fold change vs veh, PPFIA1 / RFU, MAT2A / Fold change vs veh, MAT2A / RFU, CCT5 / Fold change vs veh, CCT5 / RFU, WDR92 / Fold change vs veh, WDR92 / RFU, CUX1 / Fold change vs veh, CUX1 / RFU, TTC7A / Fold change vs veh, TTC7A / RFU, TMEM135 / Fold change vs veh, TMEM135 / RFU, DEPTOR / Fold change vs veh, DEPTOR / RFU, CPM / Fold change vs veh, CPM / RFU, DNAJB6 / Fold change vs veh, DNAJB6 / RFU, CACNA2D3 / Fold change vs veh, CACNA2D3 / RFU, DTX4 / Fold change vs veh, DTX4 / RFU, TFCP2 / Fold change vs veh, TFCP2 / RFU, GMCL1 /// GMCL1P1 / Fold change vs veh, GMCL1 /// GMCL1P1 / RFU, AEBP2 / Fold change vs veh, AEBP2 / RFU, SNHG1 /// SNORD22 /// SNORD25 /// SNORD26 /// SNORD27 /// SNORD28 /// SNORD29 /// SNORD31 / Fold change vs veh, SNHG1 /// SNORD22 /// SNORD25 /// SNORD26 /// SNORD27 /// SNORD28 /// SNORD29 /// SNORD31 / Fold change (Aza/veh), C12orf56 (ProbeSet 11735607_a_at) / Fold change (ACY-1035/veh), C12orf56 (ProbeSet 11735607_a_at) / Fold change (Aza/veh), FGFR1OP (ProbeSet 11751329_s_at) / Fold change (ACY-1035/veh), FGFR1OP (ProbeSet 11751329_s_at) / Fold change (Aza/veh), VPS36 (ProbeSet 11739960_a_at) / Fold change (ACY-1035/veh), VPS36 (ProbeSet 11739960_a_at) / RFU SYPL1 (11715823_x_at) / Fold change /veh SYPL1 (11715823_x_at) / RFU IGFBP7 (11715501_s_at) / Fold change /veh IGFBP7 (11715501_s_at) / RFU REEP3 (11722064_at) / Fold change /veh REEP3 (11722064_at) / RFU IGLL1 (11728026_x_at) / Fold change /veh IGLL1 (11728026_x_at): dose or concentration left out as unconfirmed
Conditions: ProbeSet 11743929_at; LIST B

`Nc1ncn([C@@H]2O[C@H](CO)[C@@H](O)[C@H]2O)c(=O)n1` [azacitidine] was tested, and the “Fold change vs veh, UHRF1BP1L” value was 0.95.
